Measured values as given in PubChem BioAssay AID248 (DTP/NCI, 2004).
Values joined by “and” are separate entries in the source; they are usually repeats but may differ in a detail not shown here. Equal entries are not always repeated. Toxic doses and inconclusive results are not listed. No stated cut-off is given here; in the data, active means T/C of 150% or more; inactive means T/C below 125%. Peptide text beside a SMILES is read from it. * marks the point of attachment. Cbz = O=C(OCc1ccccc1)*

System: L1210 leukemia ip in BDF1 mice, survival T/C
Assay: NCI In Vivo Anticancer Drug Screen. Data for tumor model L1210 Leukemia (intraperitoneal) in B6D2F1 (BDF1) mice
Conditions: endpoint: mean survival time, higher = longer survival
Method in brief: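 Transplanted-tumor mice were given test agent; controls received vehicle only. Survival readings from the two groups were divided (treated over control).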

[1] = dose: 100.0 mg/kg/injection, schedule: Q01DX001 (ip), vehicle: carboxymethylcellulose (CMC)
[2] = dose: 200.0 mg/kg/injection, schedule: Q01DX001 (ip), vehicle: carboxymethylcellulose (CMC)
[3] = dose: 400.0 mg/kg/injection, schedule: Q01DX001 (ip), vehicle: carboxymethylcellulose (CMC)
[4] = dose: 100.0 mg/kg/injection, schedule: Q01DX009 (ip), vehicle: Klucel (hydroxypropylcellulose) (HPC)
[5] = dose: 100.0 mg/kg/injection, schedule: Q04DX003 (ip), vehicle: Klucel (hydroxypropylcellulose) (HPC)
[6] = dose: 200.0 mg/kg/injection, schedule: Q01DX009 (ip), vehicle: Klucel (hydroxypropylcellulose) (HPC)
[7] = dose: 200.0 mg/kg/injection, schedule: Q04DX003 (ip), vehicle: Klucel (hydroxypropylcellulose) (HPC)
[8] = dose: 400.0 mg/kg/injection, schedule: Q01DX009 (ip), vehicle: Klucel (hydroxypropylcellulose) (HPC)
[9] = dose: 400.0 mg/kg/injection, schedule: Q04DX003 (ip), vehicle: Klucel (hydroxypropylcellulose) (HPC)
[10] = dose: 100.0 mg/kg/injection, schedule: Q04DX002 (ip), vehicle: Klucel (hydroxypropylcellulose) (HPC)
[11] = dose: 200.0 mg/kg/injection, schedule: Q04DX002 (ip), vehicle: Klucel (hydroxypropylcellulose) (HPC)
[12] = dose: 400.0 mg/kg/injection, schedule: Q04DX002 (ip), vehicle: Klucel (hydroxypropylcellulose) (HPC)
[13] = dose: 100.0 mg/kg/injection, schedule: Q01DX009 (ip), vehicle: saline with Tween-80
[14] = dose: 200.0 mg/kg/injection, schedule: Q01DX009 (ip), vehicle: saline with Tween-80
[15] = dose: 100.0 mg/kg/injection, schedule: Q01DX001 (ip), vehicle: saline
[16] = dose: 200.0 mg/kg/injection, schedule: Q01DX001 (ip), vehicle: saline
[17] = dose: 400.0 mg/kg/injection, schedule: Q01DX001 (ip), vehicle: saline
[18] = dose: 100.0 mg/kg/injection, schedule: Q04DX003 (ip), vehicle: saline with Tween-80
[19] = dose: 400.0 mg/kg/injection, schedule: Q04DX003 (ip), vehicle: saline with Tween-80
[20] = dose: 200.0 mg/kg/injection, schedule: Q04DX003 (ip), vehicle: saline with Tween-80

Measured: T/C

O=C1Nc2nc(=O)nc3[nH]c(=O)nc(n23)N1
inactive: dose: 25.0 mg/kg/injection, schedule: Q01DX009 (ip), vehicle: saline 106 % of control | dose: 50.0 mg/kg/injection, schedule: Q01DX009 (ip), vehicle: saline 98 % of control | dose: 50.0 mg/kg/injection, schedule: Q04DX003 (ip), vehicle: saline 110 % of control | dose: 100.0 mg/kg/injection, schedule: Q01DX009 (ip), vehicle: saline 98 % of control | dose: 100.0 mg/kg/injection, schedule: Q04DX003 (ip), vehicle: saline 103 % of control

O=[N+]([O-])c1ccccc1C1OCCO1
inactive: dose: 50.0 mg/kg/injection, schedule: Q01DX001 (ip), vehicle: carboxymethylcellulose (CMC) 95 % of control | [1] 93 % of control | [2] 101 % of control | [3] 93 % of control

CCCCCCCC(=O)N(CCCCC)CCCCC
inactive: [1] 99 % of control | dose: 100.0 mg/kg/injection, schedule: Q01DX009 (ip), vehicle: carboxymethylcellulose (CMC) 93 % of control and 101 % of control | dose: 100.0 mg/kg/injection, schedule: Q04DX002 (ip), vehicle: carboxymethylcellulose (CMC) 97 % of control | dose: 100.0 mg/kg/injection, schedule: Q04DX003 (ip), vehicle: carboxymethylcellulose (CMC) 101 % of control | [2] 96 % of control | dose: 200.0 mg/kg/injection, schedule: Q01DX009 (ip), vehicle: carboxymethylcellulose (CMC) 97 % of control and 90 % of control | dose: 200.0 mg/kg/injection, schedule: Q04DX002 (ip), vehicle: carboxymethylcellulose (CMC) 107 % of control | dose: 200.0 mg/kg/injection, schedule: Q04DX003 (ip), vehicle: carboxymethylcellulose (CMC) 98 % of control | [3] 91 % of control | dose: 400.0 mg/kg/injection, schedule: Q04DX002 (ip), vehicle: carboxymethylcellulose (CMC) 96 % of control | dose: 400.0 mg/kg/injection, schedule: Q04DX003 (ip), vehicle: carboxymethylcellulose (CMC) 102 % of control

CC1C(=O)CC2C3(C)CCC2(C(C)C(=O)O)C(=O)C13 (stereo unspecified)
inactive: dose: 100.0 mg/kg/injection, schedule: Q01DX001 (ip), vehicle: Klucel (hydroxypropylcellulose) (HPC) 100 % of control | [4] 104 % of control | [5] 109 % of control | dose: 200.0 mg/kg/injection, schedule: Q01DX001 (ip), vehicle: Klucel (hydroxypropylcellulose) (HPC) 107 % of control | [6] 100 % of control | [7] 106 % of control | dose: 400.0 mg/kg/injection, schedule: Q01DX001 (ip), vehicle: Klucel (hydroxypropylcellulose) (HPC) 107 % of control | [8] 98 % of control | [9] 104 % of control

O=C(O)C1C2CCC3C(C(=O)O)C3C21 (stereo unspecified)
inactive: [4] 100 % of control | [5] 97 % of control | [6] 97 % of control | [7] 101 % of control | [8] 92 % of control | [9] 98 % of control

CCN(CC)c1ccc(N=Nc2cc(Cl)ccc2Cl)c(NC(=O)CSC(C)=O)c1
inactive: [4] 110 % of control | [6] 101 % of control | [8] 97 % of control

Cc1[nH]nc2c(NO)ncnc12
inactive: dose: 100.0 mg/kg/injection, schedule: Q01DX001 (ip), vehicle: other 98 % of control | dose: 200.0 mg/kg/injection, schedule: Q01DX001 (ip), vehicle: other 98 % of control | dose: 400.0 mg/kg/injection, schedule: Q01DX001 (ip), vehicle: other 102 % of control

S=c1[nH]nc(Nc2ccccc2Cl)s1
inactive: [4] 97 % of control | [6] 98 % of control | [8] 109 % of control

CCCCCCCCCCCCCCCCCC(CCCCCCCCCCCCCCCC)CCCCCCCCCCCCCCCC
inactive: [1] 96 % of control | [2] 102 % of control | [3] 91 % of control

COc1ccc(NC(=O)COc2ccc(Cl)cc2Cl)cc1
inactive: [10] 108 % of control | [11] 92 % of control | [12] 94 % of control

c1ccc2c(c1)-c1ccccc1[Si]21c2ccccc2-c2ccccc21
inactive: [13] 97 % of control | [14] 92 % of control | dose: 400.0 mg/kg/injection, schedule: Q01DX009 (ip), vehicle: saline with Tween-80 91 % of control

O=S(=O)(Cl)c1ccc2cc3ccccc3cc2c1
inactive: dose: 50.0 mg/kg/injection, schedule: Q01DX009 (ip), vehicle: saline with Tween-80 98 % of control | [13] 96 % of control | [14] 102 % of control

COc1ccc([N+](=O)[O-])cc1NS(=O)(=O)c1ccc(Cl)cc1
inactive: [4] 102 % of control | [6] 98 % of control | [8] 93 % of control

O=P(O)(O)CCC(O)CO (stereo unspecified)
inactive: dose: 100.0 mg/kg/injection, schedule: Q04DX002 (ip), vehicle: saline 94 % of control | dose: 200.0 mg/kg/injection, schedule: Q04DX002 (ip), vehicle: saline 97 % of control | dose: 400.0 mg/kg/injection, schedule: Q04DX002 (ip), vehicle: saline 102 % of control

COc1cc2c(cc1OC)C1CC3(CC4c5cc(OC)c(OC)cc5CCN4CC3CO)C(CO)CN1CC2 (stereo unspecified)
inactive: dose: 4.0 mg/kg/injection, schedule: Q04DX003 (ip), vehicle: water 101 % of control | dose: 8.0 mg/kg/injection, schedule: Q04DX003 (ip), vehicle: water 101 % of control | dose: 16.0 mg/kg/injection, schedule: Q04DX003 (ip), vehicle: water 110 % of control | dose: 32.0 mg/kg/injection, schedule: Q04DX003 (ip), vehicle: water 103 % of control | dose: 64.0 mg/kg/injection, schedule: Q04DX003 (ip), vehicle: water 101 % of control

c1ccc(OCCOCCOc2ccccc2)cc1
inactive: dose: 75.0 mg/kg/injection, schedule: Q01DX009 (ip), vehicle: Klucel (hydroxypropylcellulose) (HPC) 96 % of control | [10] 98 % of control | dose: 150.0 mg/kg/injection, schedule: Q01DX009 (ip), vehicle: Klucel (hydroxypropylcellulose) (HPC) 114 % of control | [11] 102 % of control | dose: 300.0 mg/kg/injection, schedule: Q01DX009 (ip), vehicle: Klucel (hydroxypropylcellulose) (HPC) 96 % of control | [12] 91 % of control

CCCCCCCCCC(O)CCCC(O)C(O)CCCCCCC(=O)O (stereo unspecified)
inactive: [10] 91 % of control | [11] 91 % of control | [12] 91 % of control

CCOC(=O)c1ccc(NC(=O)Nc2ccc(OC)c([N+](=O)[O-])c2)cc1
inactive: [13] 95 % of control | [14] 90 % of control

CN(C)P(N(C)C)N(C)C
inactive: dose: 50.0 mg/kg/injection, schedule: Q01DX001 (ip), vehicle: saline 104 % of control | [15] 95 % of control | [16] 93 % of control | [17] 101 % of control

O=c1scc(-c2ccccc2)s1
inactive: [10] 113 % of control | [11] 88 % of control | [12] 106 % of control

O=C(O)CNC(=O)CNC(=O)OCc1ccccc1 (Cbz-Gly-Gly-OH)
inactive: [4] 95 % of control | [5] 97 % of control | [6] 95 % of control | [7] 101 % of control | [8] 100 % of control | [9] 94 % of control

CC(C)C(=O)OCC1OC(n2cnc3c(=S)nc[nH]c32)C(OC(=O)C(C)C)C1OC(=O)C(C)C (stereo unspecified)
inactive: dose: 2.5 mg/kg/injection, schedule: Q01DX Z (oral), vehicle: carboxymethylcellulose (CMC) 101 % of control | dose: 5.0 mg/kg/injection, schedule: Q01DX Z (oral), vehicle: carboxymethylcellulose (CMC) 95 % of control | dose: 10.0 mg/kg/injection, schedule: Q01DX Z (oral), vehicle: carboxymethylcellulose (CMC) 97 % of control | dose: 20.0 mg/kg/injection, schedule: Q01DX Z (oral), vehicle: carboxymethylcellulose (CMC) 100 % of control

CC(c1ccccc1)n1cnc2c(Cl)ncnc21 (stereo unspecified)
inactive: [15] 98 % of control | [16] 101 % of control | [17] 110 % of control

O=C(CC(=O)Nc1ccc([N+](=O)[O-])cc1)Nc1ccc([N+](=O)[O-])cc1
inactive: [18] 87 % of control | [19] 92 % of control

COc1ccc(C(C(N)=O)N2CCCC2)cc1 (stereo unspecified)
inactive: [18] 102 % of control | [20] 96 % of control | [19] 96 % of control

COc1ccc([N+](=O)[O-])cn1
inactive: [18] 98 % of control | [20] 91 % of control | [19] 88 % of control
